Experimental data taken from US12331035B2, “Bicyclic compound and use thereof” (SK BIOPHARMACEUTICALS CO., LTD., priority 2019, dated 2025).
Counter-ions that a name gives are not always drawn.

Target: T1, PRMT5-MEP50 enzyme complex (Homo sapiens, UniProt O14744)
T1 construct: purchased BPS Bioscience (USA) 51045
Assay: In vitro PRMT5 enzyme activity assay (methylation of histone H4 arginine H4R3, ELISA absorbance at 450 nm)
Type: biochemical
Settings: S-adenosylmethionine, histone H4 peptide, 2 hours at room temperature, 8 points 10 μM to 0.128 nM
Procedure: Method for Measuring Enzyme Activity
In vitro assay: PRMT5-MEP50 enzyme complex, cofactor S-adenosylmethionine (SAM) and histone H4 peptide were reacted in vitro, and methylation of arginine (H4R3) —which is the third amino acid of histone H4—was measured in order to measure the enzyme activity of PRMT5.
Reagents: PRMT5-MEP50 enzyme complex (Catalog No. 51045), blocking buffer (52100-B), histone methyltransferase reaction buffer 2 (4×HMT assay buffer 2, Catalog No. 52170), and primary antibody (primary antibody 4-3, Catalog No. 52150) were purchased from BPS Bioscience (USA). The histone H4 peptide (1-20 amino acids) was custom made by Komabiotech (Korea) and used. S-adenosylmethionine was purchased from NEB (New England Biolabs, USA, Catalog No. B9003S). Plates for coating histone H4 peptide, washing buffer and color development reagent were purchased from the following vendors: Plate (Immobilizer™-Amino Plate, NUNC, Denmark, Catalog No. 436023), carbonate-bicarbonate buffer (Sigma-Aldrich, USA, Catalog No. C3041), washing buffer (10×TBST, Biosesang, Korea, Catalog No. T2005), TMB ELISA substrate (Abcam, UK, Catalog No. ab210902), horseradish peroxidase (HRP)-conjugated antibody (Abcam, UK, Catalog No. ab6721).
Experimental procedure: The histone H4 peptide was diluted with carbonate-bicarbonate buffer and prepared to 100 μg/mL, and then dispensed onto the plate per 100 μL and reacted at 37° C. for 1 hour. PRMT5-MEP50 enzyme complex and S-adenosylmethionine were diluted with histone methyltransferase reaction buffer to prepare 5 μg/mL and 2 μM, respectively, and then 20 μL of PRMT5-MEP50 enzyme complex and 25 μL of S-adenosylmethionine were dispensed onto the plate prepared above. 5 μL of the compound diluted with 10% dimethyl sulfoxide solution was added thereto and reacted at room temperature for 2 hours (final volume=50 μL). The concentration of the compound was diluted 1:5 from 10 μM until the lowest concentration of 0.128 nM, and 8 points were used for the test. After preparing the primary antibody by diluting 1:2000 with blocking buffer, 100 μL was added to the plate and reacted at room temperature for 1 hour. After preparing horseradish peroxidase-conjugated antibody by diluting 1:10,000 with blocking buffer, 100 μL was added to the plate and reacted at room temperature for 1 hour. 100 μL of TMB substrate was added and reacted for 3 minutes at room temperature, and 100 μL of 1 N sulfuric acid was then added to terminate the reaction. Then, the absorbance at 450 nm was measured to calculate the IC50 value of the compound. (+++: 1 to 100 nM, ++: greater than 100 to 1,000 nM, +: greater than 1,000 to 10,000 nM)

T1 sequence (O14744 2-637 limits assumed): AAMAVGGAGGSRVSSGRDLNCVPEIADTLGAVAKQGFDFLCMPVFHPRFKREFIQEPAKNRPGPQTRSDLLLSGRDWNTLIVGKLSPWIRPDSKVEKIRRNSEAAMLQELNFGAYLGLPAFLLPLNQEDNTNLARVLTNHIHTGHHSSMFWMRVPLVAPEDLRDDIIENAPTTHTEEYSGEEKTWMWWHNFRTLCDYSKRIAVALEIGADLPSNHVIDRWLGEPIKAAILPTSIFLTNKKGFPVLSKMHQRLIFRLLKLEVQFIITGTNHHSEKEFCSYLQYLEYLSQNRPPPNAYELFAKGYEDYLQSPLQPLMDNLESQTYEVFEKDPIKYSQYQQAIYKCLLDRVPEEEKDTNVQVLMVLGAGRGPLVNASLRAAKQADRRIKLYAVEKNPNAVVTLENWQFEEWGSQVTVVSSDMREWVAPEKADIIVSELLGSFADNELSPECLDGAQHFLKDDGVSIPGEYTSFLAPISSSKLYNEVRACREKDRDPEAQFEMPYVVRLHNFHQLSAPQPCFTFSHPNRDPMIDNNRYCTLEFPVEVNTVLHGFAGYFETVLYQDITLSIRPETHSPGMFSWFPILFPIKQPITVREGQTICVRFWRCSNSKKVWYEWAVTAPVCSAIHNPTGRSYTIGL
T1 sequence (Q9BQA1 2-342 partner limits assumed): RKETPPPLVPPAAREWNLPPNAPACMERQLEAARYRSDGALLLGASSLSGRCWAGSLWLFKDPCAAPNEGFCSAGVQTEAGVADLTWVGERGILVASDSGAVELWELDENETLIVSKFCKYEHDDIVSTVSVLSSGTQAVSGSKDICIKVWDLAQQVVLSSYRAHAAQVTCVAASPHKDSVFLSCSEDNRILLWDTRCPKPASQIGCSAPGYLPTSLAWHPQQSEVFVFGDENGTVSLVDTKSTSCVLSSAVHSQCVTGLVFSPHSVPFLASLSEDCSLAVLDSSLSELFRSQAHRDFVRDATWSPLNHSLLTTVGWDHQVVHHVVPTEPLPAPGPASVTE

Row | IC50 | SMILES
1 | 0.1 to 1 µM | CC1CC(C)CN(c2ccc3c(c2)CCN(C[C@H](O)CN2CCc4ccccc4C2)C3=O)C1 (stereo partly drawn) [Example 28, 2-[(2R)-3-(3,4-dihydro-1H-isoquinolin-2-yl)-2-hydroxy-propyl]-6-(3,5-dimethyl-1-piperidyl)-3,4-dihydroisoquinolin-1-one]
2 | 0.001 to 0.1 µM | CN1CCC(Oc2ccc3c(c2)CCN(C[C@H](O)CN2CCc4ccccc4C2)C3=O)C1 (stereo partly drawn) [Example 133, 2-[(2R)-3-(3,4-dihydro-1H-isoquinolin-2-yl)-2-hydroxy-propyl]-6-(1-methylpyrrolidin-3-yl)oxy-3,4-dihydroisoquinolin-1-one]
3 | 0.1 to 1 µM | CC(C)(C)C(=O)Nc1ccc2c(c1)CCN(C[C@H](O)CN1CCc3ccccc3C1)C2=O [Example 19, N-[2-[(2R)-3-(3,4-dihydro-1H-isoquinolin-2-yl)-2-hydroxy-propyl]-1-oxo-3,4-dihydroisoquinolin-6-yl]-2,2-dimethylpropanamide]
4 | 1 to 10 µM | CC1(C)CN(C[C@H](O)CN2CCc3ccccc3C2)C(=O)c2ccc(N3CCN(C=O)CC3)cc21 [Example 130, 4-[2-[(2R)-3-(3,4-dihydro-1H-isoquinolin-2-yl)-2-hydroxy-propyl]-4,4-dimethyl-1-oxo-3H-isoquinolin-6-yl]piperazine-1-carbaldehyde; hydrochloride]
5 | 0.001 to 0.1 µM | CC1CN(c2ccc3c(c2)CCN(C[C@H](O)CN2CCc4ccccc4C2)C3=O)CC(=O)N1C (stereo partly drawn) [Example 103, 2-[(2R)-3-(3,4-dihydro-1H-isoquinolin-2-yl)-2-hydroxy-propyl]-6-(3,4-dimethyl-5-oxo-piperazin-1-yl)-3,4-dihydroisoquinolin-1-one]
6 | 0.001 to 0.1 µM | CN(c1ccc2c(c1)CCN(C[C@H](O)CN1CCc3ccccc3C1)C2=O)C1CCCCC1 [Example 11, 6-[cyclohexyl(methyl)amino]-2-[(2R)-3-(3,4-dihydro-1H-isoquinolin-2-yl)-2-hydroxy-propyl]-3,4-dihydroisoquinolin-1-one]
7 | 0.001 to 0.1 µM | COC1CCN(Cc2ccc3c(c2)CCN(C[C@H](O)CN2CCc4ccccc4C2)C3=O)CC1 [Example 66, 2-[(2R)-3-(3,4-dihydro-1H-isoquinolin-2-yl)-2-hydroxy-propyl]-6-[(4-methoxy-1-piperidyl)methyl]-3,4-dihydroisoquinolin-1-one]
8 | 0.1 to 1 µM | O=C1c2ccc(N3CCN(C4CCOCC4)CC3)cc2CCN1C[C@H](O)CN1CCc2ccccc2C1 [Example 122, 2-[(2R)-3-(3,4-dihydro-1H-isoquinolin-2-yl)-2-hydroxy-propyl]-6-(4-tetrahydropyran-4-ylpiperazin-1-yl)-3,4-dihydroisoquinolin-1-one]
9 | 0.001 to 0.1 µM | CC1CN(c2ccc3c(c2)CCN(C[C@H](O)CN2CCc4ccccc4C2)C3=O)CC(C)N1 (stereo partly drawn) [Example 29, 2-[(2R)-3-(3,4-dihydro-1H-isoquinolin-2-yl)-2-hydroxy-propyl]-6-(3,5-dimethylpiperazin-1-yl)-3,4-dihydroisoquinolin-1-one]
10 | 0.001 to 0.1 µM | CCCc1ccc2c(c1)CCN(C[C@H](O)CN1CCc3ccccc3C1)C2=O [Example 13, 2-[(2R)-3-(3,4-dihydro-1H-isoquinolin-2-yl)-2-hydroxy-propyl]-6-propyl-3,4-dihydroisoquinolin-1-one]
11 | 0.001 to 0.1 µM | CC(=O)N1CCC(Nc2ccc3c(c2)CCN(C[C@H](O)CN2CCc4ccccc4C2)C3=O)CC1 [Example 32, 6-[(1-acetyl-4-piperidyl)amino]-2-[(2R)-3-(3,4-dihydro-1H-isoquinolin-2-yl)-2-hydroxy-propyl]-3,4-dihydroisoquinolin-1-one]
12 | 0.001 to 0.1 µM | CC(C)N1CCN(c2ccc3c(c2)CCN(C[C@H](O)CN2CCc4ccccc4C2)C3=O)CC1 [Example 64, [(2R)-3-(3,4-dihydro-1H-isoquinolin-2-yl)-2-hydroxy-propyl]-6-(4-isopropylpiperazin-1-yl)-3,4-dihydroisoquinolin-1-one]
13 | 0.1 to 1 µM | O=C1c2ccc(NC3CCOC3)cc2CCN1C[C@H](O)CN1CCc2ccccc2C1 (stereo partly drawn) [Example 50, 2-[(2R)-3-(3,4-dihydro-1H-isoquinolin-2-yl)-2-hydroxy-propyl]-6-(tetrahydrofuran-3-ylamino)-3,4-dihydroisoquinolin-1-one]
14 | 0.001 to 0.1 µM | O=C(CN1CCOCC1)Nc1ccc2c(c1)CCN(C[C@H](O)CN1CCc3ccccc3C1)C2=O [Example 33, N-[2-[(2R)-3-(3,4-dihydro-1H-isoquinolin-2-yl)-2-hydroxy-propyl]-1-oxo-3,4-dihydroisoquinolin-6-yl]-2-morpholino-acetamide]
15 | 0.001 to 0.1 µM | CC(=O)N1CCN(c2ccc3c(c2)C2(CC2)CN(C[C@H](O)CN2CCc4ccccc4C2)C3=O)CC1 [Example 105, 6-(4-acetylpiperazin-1-yl)-2-[(2R)-3-(3,4-dihydro-1H-isoquinolin-2-yl)-2-hydroxy-propyl]spiro[3H-isoquinoline-4,1′-cyclopropane]-1-one]
16 | 0.1 to 1 µM | CN(C)C1CCN(c2ccc3c(c2)C(C)(C)CN(C[C@H](O)CN2CCc4ccccc4C2)C3=O)CC1 [Example 111, 2-[(2R)-3-(3,4-dihydro-1H-isoquinolin-2-yl)-2-hydroxy-propyl]-6-[4-(dimethylamino)-1-piperidyl]-4,4-dimethyl-3H-isoquinolin-1-one]
17 | 0.001 to 0.1 µM | O=C1c2ccc(NCc3ccncc3)cc2CCN1C[C@H](O)CN1CCc2ccccc2C1 [Example 10, 2-[(2R)-3-(3,4-dihydro-1H-isoquinolin-2-yl)-2-hydroxy-propyl]-6-(4-pyridylmethylamino)-3,4-dihydroisoquinolin-1-one]
18 | 0.001 to 0.1 µM | CN1CCCN(c2ccc3c(c2)CCN(C[C@H](O)CN2CCc4ccccc4C2)C3=O)CC1=O [Example 79, 2-[(2R)-3-(3,4-dihydro-1H-isoquinolin-2-yl)-2-hydroxy-propyl]-6-(4-methyl-3-oxo-1,4-diazepan-1-yl)-3,4-dihydroisoquinolin-1-one]
19 | 0.1 to 1 µM | CC(=O)NC1CCN(c2ccc3c(c2)CCN(C[C@H](O)CN2CCc4ccccc4C2)C3=O)CC1 [Example 92, N-[1-[2-[(2R)-3-(3,4-dihydro-1H-isoquinolin-2-yl)-2-hydroxy-propyl]-1-oxo-3,4-dihydroisoquinolin-6-yl]-4-piperidyl]acetamide]
20 | 0.001 to 0.1 µM | O=C1c2ccc(N3CCN4C(=O)OCC4C3)cc2CCN1C[C@H](O)CN1CCc2ccccc2C1 (stereo partly drawn) [Example 94, 7-[2-[(2R)-3-(3,4-dihydro-1H-isoquinolin-2-yl)-2-hydroxy-propyl]-1-oxo-3,4-dihydroisoquinolin-6-yl]-5,6,8,8a-tetrahydro-1H-oxazolo[3,4-a]pyrazin-3-one]
21 | 0.001 to 0.1 µM | O=C1c2ccc(OC3CCOCC3)cc2CCN1C[C@H](O)CN1CCc2ccccc2C1 [Example 91, 2-[(2R)-3-(3,4-dihydro-1H-isoquinolin-2-yl)-2-hydroxy-propyl]-6-tetrahydropyran-4-yloxy-3,4-dihydroisoquinolin-1-one]
22 | 0.001 to 0.1 µM | CN(C)C1CCN(c2ccc3c(c2)C(C)(C)CN(C[C@H](O)CN2CCc4ccccc4C2)C3=O)CC1 [Example 126, 2-[(2R)-3-(3,4-dihydro-1H-isoquinolin-2-yl)-2-hydroxy-propyl]-6-[4-(dimethylamino)-1-piperidyl]-4,4-dimethyl-3H-isoquinolin-1-one; dihydrochloride]
23 | 0.1 to 1 µM | CC(=O)Nc1ccc2c(c1)CCN(C[C@H](O)CN1CCc3ccccc3C1)C2=O [Example 42, N-[2-[(2R)-3-(3,4-dihydro-1H-isoquinolin-2-yl)-2-hydroxy-propyl]-1-oxo-3,4-dihydroisoquinolin-6-yl]acetamide]
